Measurements reported in patent US11517629B2, “Methods of treating cells containing fusion genes by genomic targeting” (UNIVERSITY OF PITTSBURGH—OF THE COMMONWEALTH SYSTEM OF …, priority 2016, dated 2022).

What was measured:
DU145 BP = assay: TUNEL assay of xenografted cancers; format: in vivo, human; conditions: DU145 BP clone containing TMEM135-CCDC67 breakpoint; FIG. 16B, treated with Ad-TC
Procedure: (§1) FIG. 16A-B. (A) Expression of Cas9^D10A and HSV1-tk in HUH7 or HEP3B tumors treated with Ad-TC or pAD5-Cas9^D10A-gRNAMAN2A1^int13-gRNAFER^int14/pAD-MAN2A1^int13-EGFP-tk-FER^int14 (Ad-MF). Green arrows indicate unstained mouse stromal cells. (B) Genome therapy induced apoptosis of xenografted cancers that contain fusion gene breakpoints. Terminal deoxynucleotidyl transferase (TdT) dUTP Nick-End Labeling (TUNEL) assays were performed on the PC3 BP, DU145 BP, PC3 CMV, DU145 CMV, or HUH7 xenografted cancers treated with either Ad-TC or Ad-MF.
(§2) Immunohistochemistry. Immunohistochemistry was performed as described previously 6 with antibodies specific for HSV-1 TK (1:100 dilution) or for Cas9 (1:100 dilution). The antibody was omitted in negative controls. The sections were then incubated with horseradish peroxidase conjugated anti-rabbit IgG for 30 minutes at room temperature (ABC kit from Vector Labs, Inc). Slides were then exposed to a 3,3′-diaminobenzidine solution to visualize immunostaining. Counterstaining was performed by incubating the slides in 1% Hematoxylin solution for 2 minutes at room temperature. The slides were then rinsed briefly in distilled water to remove excessive staining. The procedure of TUNEL assays is similar to that previously described (13).

PC3 BP = assay: TUNEL assay of xenografted cancers; format: in vivo, human; conditions: PC3 BP clone containing TMEM135-CCDC67 breakpoint; FIG. 16B, treated with Ad-TC
Procedure: as §1, §2

## Nc1nc(O)c2ncn(COC(CO)CO)c2n1 [ganciclovir]
DU145 BP
  cell death observed by tunel staining: significant cell death
PC3 BP
  cell death observed by tunel staining: significant cell death
